Legend:
Conditions in all cases: 72 h
U2OS [1] = test: drug sensitivity score (DSS) for viability; higher = more toxic; extreme values may be limits of the assay
Vero E6 [2] = test: as above
Caco-2 [3] = test: as above
Calu-3 [4] = test: as above
HepG2 [5] = test: as above
U2OS [6] = test: cell viability relative to DMSO; higher = less toxic
Vero E6 [7] = test: as above
Caco-2 [8] = test: as above
Calu-3 [9] = test: as above
HepG2 [10] = test: as above
U2OS [11] = test: relative viability EC50 (midpoint between 100% and the lowest measured viability); higher = less toxic
Vero E6 [12] = test: as above
Caco-2 [13] = test: as above
Calu-3 [14] = test: as above
HepG2 [15] = test: as above

Row | Compound | drug sensitivity score (U2OS [1]) | drug sensitivity score (Vero E6 [2]) | drug sensitivity score (Caco-2 [3]) | drug sensitivity score (Calu-3 [4]) | drug sensitivity score (HepG2 [5]) | cell viability (U2OS [6]; 1 nM) [%] | cell viability (U2OS [6]; 10 nM) [%] | cell viability (U2OS [6]; 100 nM) [%] | cell viability (U2OS [6]; 1000 nM) [%] | cell viability (U2OS [6]; 10000 nM) [%] | cell viability (Vero E6 [7]; 1 nM) [%] | cell viability (Vero E6 [7]; 10 nM) [%] | cell viability (Vero E6 [7]; 100 nM) [%] | cell viability (Vero E6 [7]; 1000 nM) [%] | cell viability (Vero E6 [7]; 10000 nM) [%] | cell viability (Caco-2 [8]; 1 nM) [%] | cell viability (Caco-2 [8]; 10 nM) [%] | cell viability (Caco-2 [8]; 100 nM) [%] | cell viability (Caco-2 [8]; 1000 nM) [%] | cell viability (Caco-2 [8]; 10000 nM) [%] | cell viability (Calu-3 [9]; 1 nM) [%] | cell viability (Calu-3 [9]; 10 nM) [%] | cell viability (Calu-3 [9]; 100 nM) [%] | cell viability (Calu-3 [9]; 1000 nM) [%] | cell viability (Calu-3 [9]; 10000 nM) [%] | cell viability (HepG2 [10]; 1 nM) [%] | cell viability (HepG2 [10]; 10 nM) [%] | cell viability (HepG2 [10]; 100 nM) [%] | cell viability (HepG2 [10]; 1000 nM) [%] | cell viability (HepG2 [10]; 10000 nM) [%] | relative viability EC50 (U2OS [11]) [µM] | relative viability EC50 (Vero E6 [12]) [µM] | relative viability EC50 (Caco-2 [13]) [µM] | relative viability EC50 (Calu-3 [14]) [µM] | relative viability EC50 (HepG2 [15]) [µM]
1 | CCCCCC(O)CCCC(=O)O (stereo not given) | 0 | 0 | 0.5 | 0 | 0 | 98.1 | 97.8 | 100 | 95.8 | 102 | 86.1 | 102 | 95.1 | 95.3 | 90.2 | 95.3 | 79 | 82.1 | 93.7 | 101 | 98.6 | 103 | 101 | 95.9 | 99.4 | 90.7 | 95.5 | 85.8 | 98.5 | 92.5 | > 10 | > 10 | > 10 | > 10 | > 10
2 | CCCN(CC1CC1)c1nc(C)nc(Nc2c(Cl)cc(Cl)cc2Cl)c1Cl | 0 | 0 | 0 | 0 | 0 | 100 | 97.3 | 103 | 101 | 99.3 | 98.3 | 96.7 | 94.9 | 96.8 | 106 | 93.5 | 97.8 | 90 | 96.2 | 89.8 | 85.1 | 95.1 | 93.8 | 96.8 | 95.5 | 95.4 | 94 | 106 | 103 | 97.2 | > 10 | > 10 | > 10 | > 10 | > 10
3 | CCn1c(-c2nonc2N)nc2cncc(CNC3CCNCC3)c21 | 1.3 | 0 | 0.4 | 0 | 3.9 | 93.9 | 98.2 | 96.7 | 97.3 | 76.3 | 93.3 | 104 | 101 | 93.8 | 94.1 | 93.6 | 95.1 | 105 | 105 | 80.4 | 94 | 103 | 102 | 120 | 114 | 94.8 | 104 | 89.1 | 80.6 | 79.7 | > 10 | > 10 | > 10 | > 10 | > 10
4 | CN1CCN(C(=O)c2nc3ccc(Cl)cc3[nH]2)CC1 | 0 | 0 | 0 | 0 | 0 | 105 | 97.1 | 103 | 98.1 | 101 | 97.9 | 106 | 97.8 | 102 | 104 | 106 | 100 | 96.5 | 92.2 | 90.9 | 100 | 99.9 | 87.9 | 96.9 | 101 | 104 | 107 | 96.7 | 106 | 93.8 | > 10 | > 10 | > 10 | > 10 | > 10
5 | COC(=O)Nc1ccc2[nH]cc(CCNC(C)=O)c2c1 | 0 | 0 | 0 | 0 | 0 | 98.2 | 104 | 98 | 97.2 | 96.6 | 99 | 102 | 103 | 95.3 | 99 | 96.3 | 95.8 | 94.6 | 98.9 | 105 | 103 | 96.6 | 98.1 | 97.8 | 97.8 | 102 | 94.6 | 98.3 | 96.4 | 91 | > 10 | > 10 | > 10 | > 10 | > 10
6 | COc1cc(Br)c(S(=O)(=O)Nc2ccc(Cl)c(O[C@@H]3CCN(C)C3)c2)cc1OC | 0 | 0 | 0 | 0 | 4.9 | 95.2 | 97.4 | 88.5 | 97.7 | 95 | 101 | 93.6 | 96.1 | 97.8 | 108 | 104 | 93.7 | 99.7 | 94.9 | 90 | 80.8 | 99.2 | 90.3 | 94.3 | 85 | 97.6 | 98.3 | 106 | 91.8 | 36.3 | > 10 | > 10 | > 10 | > 10 | 2.13
7 | COc1cc(N2CCOCC2)ccc1Nc1ncc(Cl)c(Nc2ccccc2NS(C)(=O)=O)n1 | 7.6 | 8.2 | 6.1 | 10.4 | 7.8 | 102 | 97.2 | 98.8 | 75 | 27.4 | 99.1 | 110 | 99.1 | 76.9 | 15.6 | 99.5 | 91.7 | 94.1 | 80.8 | 35.6 | 103 | 84.2 | 84.2 | 59.6 | 19.6 | 103 | 101 | 94.7 | 70.6 | 23.1 | 1.29 | 1.47 | 1.49 | 0.667 | 1.29
8 | COc1ccc(/C=C/CCCCOc2ccc(C(=O)c3cccc(C(=O)O)c3)cc2CCC(=O)O)cc1 | 0 | 0 | 0 | 0 | 0 | 95.8 | 96.2 | 96.3 | 100 | 98.7 | 93.9 | 96.3 | 100 | 94.4 | 99 | 96.6 | 94 | 102 | 102 | 95.3 | 102 | 84.6 | 102 | 100 | 111 | 102 | 95.3 | 109 | 110 | 106 | > 10 | > 10 | > 10 | > 10 | > 10
9 | COc1ccc(NS(=O)(=O)c2sc3ccc(Cl)cc3c2C)cc1N1CCNCC1 | 0 | 0 | 0 | 0 | 0 | 99.9 | 96 | 97.2 | 98.5 | 94.5 | 93.3 | 98 | 97.6 | 94.4 | 103 | 98.9 | 98.7 | 104 | 102 | 96.1 | 104 | 105 | 108 | 105 | 98.1 | 108 | 104 | 106 | 109 | 87.4 | > 10 | > 10 | > 10 | > 10 | > 10
10 | Cc1cc(-c2nc(C(=O)Nc3cn(C4CCOCC4)nc3C(N)=O)co2)ccn1 | 0 | 0 | 0 | 0 | 2.9 | 99 | 94.7 | 99.8 | 100 | 99.3 | 93.5 | 103 | 101 | 93 | 92.1 | 97.5 | 94.4 | 101 | 98.2 | 93.3 | 109 | 97 | 85.7 | 95 | 93.2 | 99.9 | 113 | 88.6 | 82.9 | 96.3 | > 10 | > 10 | > 10 | > 10 | > 10
11 | Cc1ccccc1/N=N/c1ccc(NC(=O)c2ccnn2C)c(C)c1 | 0 | 0 | 0 | 0 | 0 | 96.7 | 102 | 100 | 102 | 93.2 | 97.3 | 92.1 | 95.2 | 94.1 | 108 | 90.6 | 94 | 97.9 | 93.8 | 91.5 | 112 | 100 | 97.6 | 99.3 | 90.9 | 107 | 102 | 104 | 91 | 97.6 | > 10 | > 10 | > 10 | > 10 | > 10
12 | Cc1cccn2c(=O)c(/C=C(\C#N)c3nc4ccccc4s3)c(Oc3ccc(F)cc3)nc12 | 0 | 0 | 0 | 0 | 0 | 98.3 | 98.2 | 98.2 | 103 | 99.1 | 103 | 100 | 98.9 | 98.7 | 95.8 | 105 | 96.3 | 113 | 115 | 119 | 105 | 97.9 | 101 | 104 | 106 | 103 | 99.6 | 100 | 99.3 | 102 | > 10 | > 10 | > 10 | > 10 | > 10
13 | Cc1n[nH]c2ccc(-c3cncc(OC[C@@H](N)Cc4ccccc4)c3)cc12 | 7.3 | 9.7 | 5.3 | 2.9 | 11.3 | 99.6 | 99.8 | 97.7 | 88.3 | 2.8 | 101 | 106 | 96.3 | 66 | 5 | 96.7 | 102 | 97.8 | 92.2 | 27.3 | 105 | 102 | 93.4 | 103 | 41.3 | 103 | 95.8 | 106 | 53 | 1.7 | 2.18 | 1.3 | 2.28 | 3.43 | 1.04
14 | O=C(Nc1ccc(Oc2ccc(Cl)cn2)c(Cl)c1)c1ccccn1 | 0 | 0 | 0 | 0 | 0 | 102 | 105 | 99.6 | 104 | 96.2 | 101 | 101 | 102 | 96 | 95.8 | 98.1 | 97.8 | 104 | 104 | 93.1 | 103 | 108 | 95.1 | 98.6 | 97.7 | 104 | 108 | 109 | 93.7 | 99.1 | > 10 | > 10 | > 10 | > 10 | > 10
15 | O=C(Oc1cc(S(=O)(=O)c2ccccc2)ccc1[N+](=O)[O-])c1ccc(Cl)cc1 | 0 | 0 | 0 | 0 | 0 | 96.5 | 94.9 | 97.4 | 94.6 | 96.9 | 97.5 | 104 | 94.7 | 101 | 106 | 103 | 93.4 | 92.3 | 87.5 | 103 | 101 | 97.2 | 92.5 | 94.8 | 106 | 100 | 97.2 | 98.4 | 97.2 | 102 | > 10 | > 10 | > 10 | > 10 | > 10

Source: the supplement of paper PMC13380429
